From patent publication US20120118175A1, “TREATMENT TO REDUCE MICROORGANISMS WITH CARBON DIOXIDE BY MULTIPLE PRESSURE OSCILLATIONS” (SAFEFRESH TECHNOLOGIES, LLC, priority 2004, published 2012)
“And” between values parts separate entries of the source, which are not always exact repeats. Identical values can stand only once.

Assays:
[1] = test system: E. coli 0157; test: Inoculated meat cubes treated with carbon dioxide in high pressure reactor, E. coli 0157 plate count; assay type: cell-based
Description: To carry out the experiments, a high pressure reactor was designed to the following specifications. • A vessel built to withstand about 3000 psig with top and bottom vents for the addition/venting of carbon dioxide gas as required. • An analog pressure gauge. • A digital temperature recorder on the top vent from the vessel. • A pH probe that could be raised/lowered into the center of the reactor top. • A supply of liquid carbon dioxide at about 300 psi and −20° C. • A supply of gaseous carbon dioxide heated to about 56° C. in a hot water bath. • A supplementary probe to measure the temperature of the reactor barrel surface. • Lap top computer to record temperature data.
FIG. 8 is a schematic illustration of laboratory equipment 800 used in carrying out various tests of the treatment of meat with carbon dioxide. The apparatus 800 includes pressure cylinders 804, 806, and 808 with high-pressure piping 824, pressure release safety valve 828 and on/off valves 812, 814, 816, 818, 820, and 822. Meat samples, having been inoculated, are suspended from a centrally located shaft within the cylinder 804 and the upper member 802 is bolted to the cylinder 804 in a manner that substantially ensures a leak-proof and pressure tight seal. A stream of fluid carbon dioxide 824 that progressively turns to liquid is transferred into the cylinder 804 until the suspended meat samples therein are immersed in the liquid carbon dioxide. After a recorded and selected period of time, the liquid carbon dioxide is removed from the cylinder 804 and the pressure therein reduced to ambient atmospheric pressure. The samples can then be removed from the cylinder and the reduction of bacteria population determined. The items 806 and 808 are commonly referred to as an intensifier. Opening valve 812 allows filling the cylinder 806 with low pressure fluid carbon dioxide, and then, after isolation of the lower pressure source of the fluid carbon dioxide, a piston in cylinder 808 is activated by hydraulic oil from line 826 (or high-pressure air or gas) and a smaller diameter piston in cylinder 806 compresses the fluid carbon dioxide and elevates the pressure. The higher pressure carbon dioxide fluid in line 824 is then transferred to cylinder 804 via a selected path through high-pressure piping 824 as shown.
Cell cultures were grown overnight in a nutrient broth. The cells were separated by centrifugation and washed in a sterile buffer. The E. coli cell suspension was then diluted to give log 7-9 cell per ml.
Meat was purchased at a local retail store. The meat was aseptically cut into 1 inch cubes and suspended by attachment to sterile fish hooks. Meat samples were then placed into an inoculation chamber where they were sprayed with about 10 mls of the cell inoculum. This was done ensuring that all 6 sides of each piece of meat received the same exposure to the E. coli. The samples were then allowed to stand for about 30 minutes at room temperature to achieve the attachment of the E. coli to the meat. One of these meat samples was immediately taken and analyzed for E. coli (as a control). The remaining inoculated samples were then placed into the reactor and the experiment started.
One (1) inch meat cube samples were suspended from the pH probe using small fishing hooks and line so that the cubes were suspended in the bottom third of the reactor and were neither touching each other nor the walls of the vessel.
(§1) Each meat sample was placed into a sterile bag and weighed, a known volume of sterile buffer was added as a diluent and the meat sample homogenized in a ‘Stomacher’. This suspension was then further diluted as 1:10 dilutions and duplicate 1 ml samples were plated onto the surface of agar media formulated for the enumeration of E. coli 0157. The bacterial levels were recorded as colony forming units CFU per g. or as log 10 of that number.
The methodology was as stated above. The reactor contained inoculated meat. […]

[2] = test system: Meat Normal Flora; test: Un-inoculated meat exposed to CO2 in a supercritical fluid extractor, bacterial plate count; assay type: cell-based; details: for CFU/g / Logs: control 7.53 logs, listed as CO2
Description: as §1
The above experiments used the most exacting conditions available given the reactor equipment. The survival of natural microflora of meat when treated with carbon dioxide in the super critical range was also investigated.
In the Dairy Science chemistry research lab in Call Hall (KSU), equipment is available to achieve temperatures and pressures above the critical point of carbon dioxide (a Pepmaster GA made by the Suprex Corp.). This device is mainly used for lipid extraction from natural materials prior to further analysis.
The tests were undertaken to determine the efficacy of supercritical carbon dioxide using laboratory equipment shown schematically in FIGS. 8 and 9.
The sample cells 2 in parallel hold about 4 gr of sample which is sufficient to do microbial analysis and the equipment could control pressure up to about 7500 psig, temperature (above ambient), and time. Introduction of E. coli 0157 meat into the lab was not possible. […]

[3] = Experiment 1: 300-1000 psi, 10 min
[4] = Experiment 3: 1000 psi @ 13° C. held 4 hours, analyzed immediately, control 7.87 logs, listed as Liquid CO2
[5] = Experiment 4: 1470 psi @ 29° C., 5 min
[6] = Experiment 4: 3000 psi @ 29° C., 5 min

O=C=O [carbon dioxide]
average of the 3 test samples [1, 3]: 7.22 log
log reduction versus control [1, 3]: 0.47 log
average of the test samples ([1]; Experiment 2: -17° C. at 300 psig, then 1000 psig 5 min): 6.5 log
log reduction versus control ([1]; Experiment 2: -17° C. at 300 psig, then 1000 psig 5 min, meat frozen, listed as Liquid CO2): ~1 log and 1.27 log
CFU/g [1, 4]: 8,741,258.7 CFU/g and 14,344,362.3 CFU/g and 8,467,741.9 CFU/g
Logs [1, 4]: 6.94 Logs and 7.16 Logs and 6.93 Logs
log reduction versus control ([1]; Experiment 3: 1000 psig 4 hours, analyzed immediately): ~1 log and 0.86 log
further log kill by storage ([1]; Experiment 3: storage in about 100% carbon dioxide at about 4° C. for 4 days after treatment): 2.83 log
destruction of E. coli 0157 on meat surfaces ([1]; liquid carbon dioxide in the sub critical range alone): no practical significance
log kill with liquid carbon dioxide ([1]; liquid carbon dioxide, experiment not specified): ~0.5 log
log bacteria reduction versus control ([2]; Experiment 4: 1470 psi @ 29° C. (line 21B)): ~1 log
CFU/g [2, 5]: 5,233,644.9 CFU/g and 9,523,809.5 CFU/g
Logs [2, 5]: 6.72 Logs and 6.98 Logs
log bacteria reduction versus control ([2]; Experiment 4: 3000 psi @ 29° C. (lines 22C and 23D)): ~1 log
CFU/g [2, 6]: 9,029,345.4 CFU/g and 5,154,639.2 CFU/g
Logs [2, 6]: 6.96 Logs and 6.71 Logs
log bacteria after the test ([2]; Experiment 5: 3000 psi, 36° C., 5 min (mean of replicates)): 5.53 log
log reduction versus control ([2]; Experiment 5: supercritical, 3000 psi, 36° C., 5 min): ~2 log and 1.83 log
